Assay results taken from US8481738B2, “Gonadotropin-releasing hormone receptor antagonists and methods relating thereto” (Neurocrine Biosciences, Inc., priority 2007, dated 2013).

target: T1, human GnRH receptor (Homo sapiens, UniProt P30968); experiment: Peptide competition radioligand binding displacement assay, human GnRH receptor membranes; conditions: one or more of the peptide competition human receptor binding assays
T1 construct: expressed in transfected cells; host or cells: RBL cells, stably transfected (in general)
T1 sequence (P30968 1-328): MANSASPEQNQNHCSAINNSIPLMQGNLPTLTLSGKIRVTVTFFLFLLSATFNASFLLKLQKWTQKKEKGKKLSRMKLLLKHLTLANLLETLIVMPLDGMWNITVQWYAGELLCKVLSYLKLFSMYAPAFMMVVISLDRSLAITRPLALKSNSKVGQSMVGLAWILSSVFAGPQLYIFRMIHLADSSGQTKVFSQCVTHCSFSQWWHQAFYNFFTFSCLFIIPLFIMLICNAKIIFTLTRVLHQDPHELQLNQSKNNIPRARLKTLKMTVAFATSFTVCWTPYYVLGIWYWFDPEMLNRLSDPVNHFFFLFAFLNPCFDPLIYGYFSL
Summary of the method: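 Membranes for radioligand binding were prepared from RBL cells stably expressing human GnRH receptor, which were lysed by nitrogen cavitation at 900 psi, 4° C. Membranes from HEK293 cells stably transfected with human receptor were held in 10 mM HEPES pH 7.5, 150 mM NaCl, 0.1% BSA. Transiently transfected COS-7 cells were used for other species.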

Ki [nM]	Structure (SMILES)
≤ 100	CN(C(=O)c1ccc(Cl)c(-c2cnc(C(F)(F)F)cc2C#N)c1)c1ccccc1OCCc1n[nH]c(=O)o1 [31-1, 4-Chloro-3-(4-cyano-6-trifluoromethyl-pyridin-3-yl)-N-methyl-N-{2-[2-(5-oxo-4,5-dihydro-[1,3,4]oxadiazol-2-yl)ethoxy]-phenyl}-benzamide]
≤ 100	COc1ccccc1N(C)C(=O)c1cc(-c2cnc(C(F)(F)F)cc2C#N)c(Cl)cc1OCCCn1cccn1 [42-12]
≤ 100	COc1cc(Cl)c(-c2cnc(C(F)(F)F)cc2C#N)cc1C(=O)N(C)c1ccccc1OCC(F)(F)F [39-9]
≤ 100	COc1ccccc1CCOc1cc(Cl)c(-c2cnc(C(F)(F)F)cc2C#N)cc1C(=O)N(C)c1ccccc1OC [46-2]
≤ 100	COc1ccccc1N(C)C(=O)c1cc(-c2cnc(C(F)(F)F)cc2C#N)c(Cl)cc1OCCN1CCCC1=O [42-1, 4-Chloro-5-(4-cyano-6-trifluoromethyl-pyridin-3-yl)-N-(2-methoxy-phenyl)-N-methyl-2-[2-(2-oxo-pyrrolidin-1-yl)-ethoxy]-benzamide]
≤ 100	Cc1cc(C(F)(F)F)nc(=O)n1-c1cc(C(=O)N(C)c2cc(F)ccc2Cl)ccc1Cl [30-9]
≤ 100	COc1ccccc1N(C)C(=O)c1cc(-c2cnc(C(F)(F)F)cc2C#N)c(Cl)cc1OCCCn1ccnc1 [42-11]
≤ 100	COc1ccccc1N(C)C(=O)c1cc(-c2cnc(C(F)(F)F)cc2C#N)c(Cl)cc1OCCCC(=O)OC(C)OC(=O)OC1CCCCC1 (centres unmarked) [37-3, 4-{5-chloro-4-(4-cyano-6-trifluoromethyl-pyridin-3-yl)-2-[(2-methoxy-phenyl)-methyl-carbamoyl]-phenoxy}-butyric acid 1-cyclohexyloxycarbonyloxy-ethyl ester]
≤ 100	COc1ccccc1N(C)C(=O)c1cc(-c2cnc(C(F)(F)F)cc2C#N)c(Cl)cc1OCCN(C)S(C)(=O)=O [48-2, 4-Chloro-5-(4-cyano-6-trifluoromethyl-pyridin-3-yl)-2-[2-(methanesulfonyl-methyl-amino)-ethoxy]-N-(2-methoxy-phenyl)-N-methyl-benzamide]
≤ 100	CN(C(=O)c1ccc(Cl)c(-c2cnc(C(F)(F)F)cc2C#N)c1)c1ccccc1OCCc1nnn[nH]1 [45-1, 4-Chloro-3-(4-cyano-6-trifluoromethyl-pyridin-3-yl)-N-methyl-N-{2-[2-(1H-tetrazol-5-yl)-ethoxy]-phenyl}-benzamide]
≤ 100	CN(C(=O)c1ccc(Cl)c(-c2cnc(C(F)(F)F)cc2C#N)c1)c1ccccc1OCCC(=O)NCCN [53-1, N-{2-[2-(2-Amino-ethylcarbamoyl)-ethoxy]-phenyl}-4-chloro-3-(4-cyano-6-trifluoromethyl-pyridin-3-yl)-N-methylbenzamide]
≤ 100	COc1cc(Cl)c(-c2cnc(C(F)(F)F)cc2C#N)cc1C(=O)N(C)c1ncccc1OC [39-13]
≤ 100	COc1cc(Cl)c(-c2cnc(C(F)(F)F)cc2C#N)cc1C(=O)N(C)Cc1ccccc1F [39-16]
≤ 100	COc1ccccc1N(C)C(=O)c1cc(-c2cnc(C(F)(F)F)cc2C#N)c(Cl)cc1OCCN(C)C(C)=O [47-2]
≤ 100	CC(OC(=O)CCOc1ccccc1N(C)C(=O)c1ccc(Cl)c(-c2cnc(C(F)(F)F)cc2C#N)c1)OC(=O)OC1CCCCC1 (centres unmarked) [37-1, 3-(2-{[4-Chloro-3-(4-cyano-6-trifluoromethyl-pyridin-3-yl)-benzoyl]-methyl-amino}-phenoxy)-propionic acid 1-cyclohexyloxycarbonyloxy-ethyl ester]
≤ 100	COc1cc(Cl)c(-c2cnc(C(F)(F)F)cc2C#N)cc1C(=O)N(C)c1ccccc1 [39-7]
≤ 100	Cc1c(F)cccc1N(C)C(=O)c1ccc(Cl)c(-n2c(C)cc(C(F)(F)F)nc2=O)c1 [30-7]
≤ 100	CN(C(=O)c1ccc(Cl)c(-c2cnc(C(F)(F)F)cc2C#N)c1)c1ccccc1OCCc1n[nH]c(=O)[nH]1 [40-1, 4-Chloro-3-(4-cyano-6-trifluoromethyl-pyridin-3-yl)-N-methyl-N-{2-[2-(5-oxo-4,5-dihydro-1H-[1,2,4]triazol-3-yl)-ethoxy]-phenyl}-benzamide]
≤ 100	Cc1cc(C(F)(F)F)nc(=O)n1-c1cc(C(=O)N(C)c2cccc(F)c2F)ccc1Cl [30-13]
≤ 100	COc1ccccc1N(C)C(=O)c1cc(-c2cnc(C(F)(F)F)cc2C#N)c(Cl)cc1OCCn1ccnc1 [42-3]

Continued, compound first:

Structure (SMILES)	Ki [nM]
Cc1cc(Cl)cnc1-c1cc(C(=O)N(C)c2ccccc2F)ccc1Cl [2-62]	≤ 100
Cc1cc(Cl)ncc1-c1cc(C(=O)N(C)c2ccccc2C)ccc1Cl [2-18]	≤ 100
Cc1cc(C#N)ncc1-c1cc(C(=O)N(C)c2ccccc2OCCCC(=O)O)ccc1Cl [5-1, 4-(2-{[4-Chloro-3-(6-cyano-4-methyl-pyridin-3-yl)-benzoyl]-methyl-amino}-phenoxy)-butyric acid]	≤ 100
COC(=O)c1ccccc1N(C)C(=O)c1ccc(Cl)c(-c2ncc(C(F)(F)F)cc2Cl)c1 [2-75]	≤ 100
COc1ccccc1N(C)C(=O)c1ccc(Cl)c(-c2ncc(C)cc2C)c1 [2-60]	≤ 100
COc1ccccc1N(C(=O)c1ccc(Cl)c(-c2ncc(Cl)cc2Cl)c1)C1CC1 [18-1, 4-Chloro-N-cyclopropyl-3-(3,5-dichloro-pyridin-2-yl)-N-(2-methoxy-phenyl)-benzamide]	≤ 100
Cc1cccc(OCCCC(=O)O)c1N(C)C(=O)c1ccc(Cl)c(-c2ncc(C(F)(F)F)cc2Cl)c1 [5-3]	≤ 100
COc1c(Cl)cccc1N(C)C(=O)c1ccc(Cl)c(-c2cnc(C)cc2Cl)c1 [2-46]	≤ 100
Cc1cccc(C)c1N(C)C(=O)c1ccc(Cl)c(-c2ncc(Cl)cc2Cl)c1 [19-8]	≤ 100
COc1cccc(C)c1N(C)C(=O)c1ccc(Cl)c(-c2cnc(C(F)(F)F)cc2C)c1 [2-33]	≤ 100
COc1ccccc1N(C)C(=O)c1ccc(Cl)c(-c2ncc(C)cc2Cl)c1 [2-58]	≤ 100
Cc1cc(Cl)ncc1-c1cc(C(=O)N(C)c2c(C)cccc2OCCCC(=O)O)ccc1Cl [4-3]	≤ 100
Cc1cccc(OCCCO)c1N(C)C(=O)c1ccc(Cl)c(-c2ccc(C(F)(F)F)cc2C#N)c1 [10-1, 4-Chloro-3-(2-cyano-4-trifluoromethyl-phenyl)-N-[2-(3-hydroxy-propoxy)-6-methyl-phenyl]-N-methyl-benzamide]	≤ 100
CN(C(=O)c1ccc(Cl)c(-c2ccc(Cl)cc2C#N)c1)c1ccccc1OCCCC(=O)O [5-6]	≤ 100
COc1cc(C)c(-c2cc(C(=O)N(C)c3c(C)cccc3OC)ccc2Cl)cn1 [2-26]	≤ 100
COc1cccc(C)c1N(C)C(=O)c1cc(-c2cnc(C(F)(F)F)cc2C#N)c(Cl)cc1OCCCN [23-1, 2-(3-Amino-propoxy)-4-chloro-5-(4-cyano-6-trifluoromethyl-pyridin-3-yl)-N-(2-methoxy-6-methyl-phenyl)-N-methyl-benzamide]	≤ 100
COc1ccccc1N(C)C(=O)c1ccc(Cl)c(-c2nc3ccccc3cc2C#N)c1 [2-49]	≤ 100
COC(=O)COc1ccccc1N(C)C(=O)c1ccc(Cl)c(-c2cnc(Cl)cc2C)c1 [3-1, (2-{[4-chloro-3-(6-chloro-4-methyl-pyridin-3-yl)-benzoyl]-methyl-amino}-phenoxy)-acetic acid methyl ester]	≤ 100
Cc1cc(C(F)(F)F)ncc1-c1cc(C(=O)N(C)c2ccccc2OCCC(=O)O)ccc1Cl [11-3]	≤ 100
Cc1cc(C#N)ncc1-c1cc(C(=O)N(C)c2c(C)cccc2OCCCO)ccc1Cl [9-5]	≤ 100
COc1cccc(C)c1N(C)C(=O)c1cc(-c2cnc(C(F)(F)F)cc2C#N)c(Cl)cc1OCC(=O)O [22-9]	≤ 100
Cc1cc(Cl)ncc1-c1cc(C(=O)N(C)c2ccccc2CCCC(=O)O)ccc1Cl [14-1, 4-(2-{[4-Chloro-3-(6-chloro-4-methyl-pyridin-3-yl)-benzoyl]-methyl-amino}-phenyl)-butyric acid]	≤ 100
COC(=O)c1ccccc1N(C)C(=O)c1ccc(Cl)c(-c2ncc(Cl)cc2Cl)c1 [19-6]	≤ 100
Cc1cnc(-c2cc(C(=O)N(C)c3cccc(C)c3C)ccc2Cl)c(C)c1 [2-68]	≤ 100
COc1cccc(C)c1N(C)C(=O)c1ccc(Cl)c(-c2cnc(Cl)cc2C)c1 [2-31, 4-chloro-3-(6-chloro-4-methyl-pyridin-3-yl)-N-(2-methoxy-6-methyl-phenyl)-N-methyl-benzamide]	≤ 100
COc1cccc(C)c1N(C)C(=O)c1ccc(Cl)c(-c2cnc(C#N)cc2C)c1 [2-34]	≤ 100
Cc1cc(Cl)ncc1-c1cc(C(=O)N(C)c2ccccc2OCC(=O)O)ccc1Cl [4-1, (2-{[4-Chloro-3-(6-chloro-4-methyl-pyridin-3-yl)-benzoyl]-methyl-amino}-phenoxy)-acetic acid]	≤ 100
